The test system of series [1] is M. haemolytica (OSU-012103-BHI). Nature of the series: In vivo bovine M. haemolytica intratracheal lung infection challenge model. As to conditions: for Significance to T01, mortality: p≤0.2; for Mortality/Euthanization No, % / Mortality/Euthanization No, Number: surviving animals.
In series [2] the test system is bovine alveolar macrophages. In words: Phospholipidosis assay (HCS LipidTox, Incucyte). It counts as cell-based. The conditions noted are these: Bos taurus, Macrophage. From the text:
The second immunomodulation in vitro assay evaluated the potential for phospholipidosis with the compounds of the invention in bovine alveolar macrophages. This assay is utilized to determine cellular uptake of the compounds of the invention in relevant bovine and murine cell types. This assay utilized Invitrogen's commercially available HCS LipidTox detection kit with an Incucyte real time fluorescence reader to observe variations in EC50 and phospholipidosis profiles based on compound concentrations. Murine intraperitoneal macrophages were also used in the same assay to evaluate species variability for potential correlation with mouse efficacy results. The combination of the bovine whole blood assay and phospholipidosis assays enabled rank ordering for progression into in vivo testing in the murine challenge model.

Series [3] has as its system M. haemolytica (OSU-012103-BHI). The conditions noted are these: sc.
Series [4] is described as follows: pH dependent aqueous solubility. The class given is physicochemical. Here is the method: In an aqueous solution, Example H-11 exists as an equilibrated mixture of two lactone isomers as shown above. The ratio is approximately 9:1 lactone A:B. The rate of equilibration depends on pH and temperature, with neutral pH giving faster equilibration, pH˜5-6 giving much slower equilibration, and higher temperatures resulting in faster equilibration. Equilibration occurs in under 1-hour at pH>6 and temperatures >60° C. H-11 isomerization is a 6 exo-Trig cyclization and is a favored reaction by Baldwin's Rules. The dominant isomer, lactone-A, is a 15-membered macrocyclic lactone, while the minor isomer, lactone-B, is a 13-membered macrocyclic lactone. […] Due to the pH dependent solubility of H-11, and other compounds of the invention, dissolution of an organic acid (e.g., citric acid) into water prior to adding the active agent (e.g., H-11) may be necessary to ensure complete dissolution, particularly for higher concentration solutions, thereby providing a solution with enough buffering capacity for dissolution.

The subject of series [5] is E. coli and Salmonella isolates. In words: Ames mutagenicity test. The class given is cell-based. The conditions noted are these: 1-5000 μg/plate, plate incorporation method. Here is the method: In an Ames mutagenicity test, Example H-91 (1-5000 μg/plate; using the plate incorporation method and a standard panel of bacterial (E. coli and Salmonella isolates) was negative (non-mutagenic).
On the technique in general: The Ames test uses bacterial strains that need an amino acid and regain growth without it when mutated back.

The test system of a further series is IL-36RA. Nature of the series: IL-36RA change during natural infection bovine studies. The class given is in vivo, cattle. The conditions noted are these: H-91 0.5 mg/kg, H-11 0.1 mg/kg; for IL-36RA concentration relative to the baseline concentration after the elevation: after roughly 8 hours; for increase in IL-36RA compared to baseline: within 1 hour, FIG. 5. As for the experimental part: Intensive sample collection was conducted over a 96-hour period in a subset of cattle treated with Example H-91 (0.5 mg/kg) or H-11 (0.1 mg/kg) in the natural bovine infection studies. […] The compounds of the invention have shown an up-regulation of IL-36RA, which then binds to IL-36R limiting the pro-inflammatory response of IL-36. In addition, the IL-8 levels from one of the natural infection studies with Example H-91, increased 270% over the course of the study for control animals. In contrast, the IL-8 levels in animals dosed with Example H-91 decreased by about 15%.

A short description of a further series: Lipophilicity (logP). It counts as physicochemical. The source says:
The lipophilicity of an organic compound can be described by a partition coefficient, log P, which can be defined as the ratio of the concentration of the unionized compound at equilibrium between organic and aqueous phases. Generally speaking, more lipophilic compounds are less soluble in aqueous media. A negative value for log P means the compound has a higher affinity for the aqueous phase (hydrophilic); when log P=0 the compound is equally partitioned between the lipid and aqueous phases; a positive value for log P denotes a higher concentration in the lipid phase (lipophilic). Lipophilicity is a major determining factor in a compound's absorption, distribution in the body, penetration across vital membranes and biological barriers, metabolism and excretion. The compounds of the invention are lipophilic (log P˜0.503 to 5.96) which aid in their transport and absorption into respiratory tissues, e.g., lungs.

A short description of the next series: in vivo. The conditions noted are these: Holstein, bovine, plasma, subcutaneous, 2.5 mg/kg.
Where [6] appears, read: Table 9 study, T03: 0.5 mg/kg subcutaneous.
Setting [7] is: Table 9 study, T04: 2.5 mg/kg subcutaneous.
Where [8] appears, read: Table 7 study, T02: 0.5 mg/kg subcutaneous.
Where [9] appears, read: Table 7 study, T03: 2.5 mg/kg subcutaneous.

pEC50: −log10 of the molar value. Entries after “also recorded” stand apart in the source; their conditions may differ. Read-outs that look alike come from different tables or passages of the source.

The term pEC50 denotes −log10 of the EC50, conventionally taken in molar units. The logP is a log measure of how a compound divides between an organic and an aqueous phase. For orientation: Cmax means the highest concentration seen after dosing.

For the molecule `CCCNC[C@]1(O)[C@H](C)O[C@@H](O[C@H]2[C@H](C)[C@@H](O[C@@H]3O[C@H](C)C[C@H](N(C)C(=O)N(C)c4ccccc4)[C@H]3O)[C@](C)(O)C[C@@H](C)CN[C@H](C)[C@@H](O)[C@](C)(O)[C@@H](CC)OC(=O)[C@@H]2C)C[C@@]1(C)OC` [Example H-11, 1-((2S,3R,4S,6R)-2-(((2R,3S,4R,5R,8R,10R,11R,12S,13S,14R)-2-ethyl-3,4,10-trihydroxy-13-(((2R,4R,5S,6S)-5-hydroxy-4-methoxy-4,6-dimethyl-5-((propylamino)methyl)tetrahydro-2H-pyran-2-yl)oxy)-3,5,8,10,12,14-hexamethyl-15-oxo-1-oxa-6-azacyclopentadecan-11-yl)oxy)-3-hydroxy-6-methyltetrahydro-2H-pyran-4-yl)-1,3-dimethyl-3-phenylurea], the “Significance at .20 level to T01, lung lesions” value (from here on “Significance at .20 level to T01”) in series [1] (Table 8 study, T03: 0.5 mg/kg subcutaneous) is listed as “No”. The “Significance at .20 level to T01” value in series [1] (Table 8 study, T04: 2.5 mg/kg subcutaneous) was “Yes”. Besides, in series [1] (setting [6]), the “Mortality/Euthanization Yes, %” value is listed as 16.7%; the “Mortality/Euthanization Yes, Number” value stood at 4; the “Significance to T01, mortality” value is on record as “Yes”; the “Mortality/Euthanization No, %” value is reported as 83.3%. The “Mortality/Euthanization No, Number” value in series [1] (setting [6]) came out at 20. In addition, in series [1] (setting [7]), the “Mortality/Euthanization Yes, %” value is 25.0%; the “Mortality/Euthanization Yes, Number” value is given as 6; the “Significance to T01, mortality” value is “No”; the “Mortality/Euthanization No, %” value is listed as 75.0%. The “Mortality/Euthanization No, Number” value in series [1] (setting [7]) turned out to be 18. In addition, in series [1] (treatment 24 hours prior to challenge, FIG. 8), the “number of blood neutrophils” value is reported as “reduced”. Further, the pEC50 in series [2] was 5.40. In series [3] (0.5 mg/kg), the “Back Transform LS % Lung with Lesions” value worked out at 28% and the “Range % Lung with Lesions” value was in the range of 0 to 68%. In series [3] (2.5 mg/kg), the “Back Transform LS % Lung with Lesions” value is reported as 21% and the “Range % Lung with Lesions” value is given as 2 to 70%. The aqueous solubility result in series [4] (acidic pH) was “very soluble”. In addition, the aqueous solubility result in series [4] (as the pH approaches neutral conditions) is on record as “lower solubility”. For the same molecule, in series [5], the Ames mutagenicity test result is reported as “non-mutagenic”. In the series on IL-36RA, the “IL-36RA concentration relative to the baseline concentration after the elevation” value is listed as −55% and the “increase in IL-36RA compared to baseline” value is “about 50%”. Besides, the logP in the series “Lipophilicity (logP)” turned out to be 3.2.

Consider `CCCNC[C@]1(O)[C@H](C)O[C@@H](O[C@H]2[C@H](C)[C@@H](O[C@@H]3O[C@H](C)C[C@H](N(C)C(=O)Nc4ccccc4)[C@H]3O)[C@](C)(O)C[C@@H](C)CN[C@H](C)[C@@H](O)[C@](C)(O)[C@@H](CC)OC(=O)[C@@H]2C)C[C@@]1(C)OC` [Example H-91, 1-((2S,3R,4S,6R)-2-(((2R,3S,4R,5R,8R,10R,11R,12S,13S,14R)-2-ethyl-3,4,10-trihydroxy-13-(((2R,4R,5S,6S)-5-hydroxy-4-methoxy-4,6-dimethyl-5-((propylamino)methyl)tetrahydro-2H-pyran-2-yl)oxy)-3,5,8,10,12,14-hexamethyl-15-oxo-1-oxa-6-azacyclopentadecan-11-yl)oxy)-3-hydroxy-6-methyltetrahydro-2H-pyran-4-yl)-1-methyl-3-phenylurea], for which the “Significance at .20 level to T01” value in series [1] (Table 6 study, T02: 0.5 mg/kg subcutaneous) was “Yes”. Further, in series [1] (Table 6 study, T03: 2.5 mg/kg subcutaneous), the “Significance at .20 level to T01” value is recorded as “Yes”. Also, in series [1] (setting [8]), the “Mortality/Euthanization Yes, %” value is on record as 0%; the “Mortality/Euthanization Yes, Number” value is 0; the “Significance to T01, mortality” value was “Yes”; the “Mortality/Euthanization No, %” value is recorded as 100%. Besides, the “Mortality/Euthanization No, Number” value in series [1] (setting [8]) stood at 23. For the same molecule, in series [1] (setting [9]), the “Mortality/Euthanization Yes, %” value is listed as 8.3%; the “Mortality/Euthanization Yes, Number” value was 2; the “Significance to T01, mortality” value was “Yes”; the “Mortality/Euthanization No, %” value stood at 91.7%. Also, the “Mortality/Euthanization No, Number” value in series [1] (setting [9]) came out at 22. For the same molecule, the pEC50 in series [2] was 4.06. Also, in series [3] (0.5 mg/kg), the “Back Transform LS % Lung with Lesions” value stood at 8% and the “Range % Lung with Lesions” value was in the range of 0 to 39%. Besides, in series [3] (2.5 mg/kg), the “Back Transform LS % Lung with Lesions” value is 9% and the “Range % Lung with Lesions” value was in the range of 0 to 58%. Besides, the Cmax in “in vivo” was determined as 152 ng/mL. In series [5], the Ames mutagenicity test result is “negative; also recorded: non-mutagenic”. In the series with IL-36RA, the “IL-36RA concentration relative to the baseline concentration after the elevation” value is reported as −55% and the “increase in IL-36RA compared to baseline” value is listed as “about 275%”. The same molecule yielded a logP in the series “Lipophilicity (logP)” of 3.1.

Source of the values: patent publication US12295936B2, “Immunomodulating urea azalides” (Zoetis Services LLC, priority 2020, dated 2025).
